{"source": "patent US12466807B2", "about": "“Salt and crystal form of a FAK inhibitor” (Amplia Therapeutics Limited, priority 2019, dated 2025)", "key": {"[1]": {"assay": "Thermodynamic solubility studies", "assay_type": "physicochemical", "details": "for HPLC Conc: ca. 22° C."}, "[2]": {"assay": "Salt disproportionation studies", "assay_type": "physicochemical", "details": "for XRPD Result: solid after 24 h in deionized water", "description": "Salt disproportionation studies were carried out as follows: • Approximately 10-20 mg of Formula I free base, L-tartrate Pattern 1 were weighed into HPLC vials. • 1 mL deionized water was then added to each vial and the vials capped and shaken at ambient temperature for 24 hours. • After this time, the samples were transferred to centrifuge tubes with nylon filters (0.22 μm) and centrifuged for approximately 15 minutes. The isolated solids were analyzed by XRPD and the filtrates analyzed by HPLC for concentration determination and the pH of all the filtrates were measured with a pH meter."}, "[3]": {"assay": "Hydration studies", "assay_type": "physicochemical", "details": "24 h", "description": "Hydration studies were carried out as follows: • Approximately 10-20 mg of Formula I free base, L-tartrate Pattern 1, were weighed into 1.5 mL vials. • Water/acetone mixtures were prepared to give water activities of 0.281, 0.637 and 0.888. • The appropriate water/acetone mixture was then added to each vial to form a slurry and the vials capped and shaken at ambient temperature for 24 hours. • After this time, the slurries were transferred to centrifuge tubes containing nylon filters (0.22 μm) and centrifuged for 15 minutes. The isolated solids were analyzed by XRPD."}, "[4]": {"assay": "7-day stability study", "assay_type": "physicochemical", "details": "for XRPD / HPLC Purity: 1 week; for HPLC Purity: input purity 99.8%", "description": "7-day stability tests were carried out as follows: • Approximately 10-20 mg of Formula I L-tartrate Pattern 1 was placed at either 40° C./75% RH, 80° C. or under ambient light and temperature for 1 week. The resulting solids were analyzed by XRPD to assess the physical stability and HPLC to assess the chemical stability."}, "[5]": {"assay": "Oral exposure (pharmacokinetics) in rats", "assay_type": "in vivo, male Sprague Dawley rats", "details": "rat", "description": "To compare the exposure of the compound of Formula I in male Sprague Dawley rats following oral administration of the free base and L-tartrate salt at a target dose of 20 mg/kg (as free base equivalent).\nFurther details of the in-life, formulation and bioanalytical procedures together with the data analysis, are described in Appendix 1.\nIn-Life • The exposure of Formula I was studied in overnight-fasted male Sprague Dawley rats that had access to water ad libitum throughout the pre- and post-dose sampling period, and access to food was re-instated 4 h post-dose. In-life details are provided in Table A1-1. • Samples of arterial blood and total urine were collected up to 48 h post-dose. Arterial blood was collected directly into borosilicate vials (at 4° C.) containing heparin, Complete® (a protease inhibitor cocktail) and potassium fluoride to minimise potential for ex vivo degradation of Formula I in blood/plasma samples. Once collected, blood samples were centrifuged, supernatant plasma was removed and stored frozen (−80° C.) until analysis by LC-MS.\nThe extraction of the test compound from plasma samples was conducted using protein precipitation with acetonitrile. Both solution and plasma standards were freshly prepared, with each set of standards comprising at least seven different analyte concentrations. Solution standards were diluted from a stock solution (1 mg/mL in DMSO) with 50% acetonitrile in water. Plasma standards were prepared by spiking blank plasma (50 μL) with solution standards (10 μL) and the internal standard, diazepam (10 μL, 5 μg/mL).\nPlasma samples were similarly prepared, except that blank acetonitrile (10 μL) was added instead of solution standards. Protein precipitation was carried out by the addition of acetonitrile (120 μL), vortexing (20 s) and centrifugation (10,000 rpm) in a microcentrifuge for 3 minutes. The supernatant was subsequently separated and 3 μL injected directly onto the column for LC/MS analysis using conditions tabulated below. All plasma concentrations are expressed as the non-salt equivalent.\nStandard Calculations • Plasma concentration versus time data were analysed using non-compartmental methods (PKSolver Version 2.0). Standard calculations for each pharmacokinetic parameter are listed below.\n[formula] • AUCIV Area under the plasma concentration versus time profile from time zero to infinity after IV administration (reported previously: CDCO_FAK_11_031) • t1/2 Elimination half-life • λ2 Terminal elimination rate constant after IV administration • BA Oral bioavailability • AUCoral Area under the plasma concentration versus time profile from time zero to infinity after oral administration • Cmax Maximum plasma concentration observed after oral administration. • Tmax Time to achieve Cmax • Differences in pharmacokinetic parameters (t½, AUC, Cmax, Tmax and BA) between free base and L-tartrate salt were evaluated using an unpaired t-test testing for significance at α=0.05 (GraphPad Prism, version 7.01)"}, "[6]": {"details": "PO 20 mg/kg (free base equivalent), mean ± SD, n = 3, listed as L-Tartrate salt, 20 mg/kg"}}, "note": "Marks after values point to notes of the source that are not given here.", "data": [{"compound": "COc1cc(C2CCN(C)CC2)ccc1Nc1ncc(C(F)(F)F)c(CCc2ccccc2CC(N)=O)n1", "note": "[L-Tartrate]", "values": [{"measurement": "Thermodynamic Solubility", "setting": "[1]; Water", "value": 0.9, "unit": "mg/mL"}, {"measurement": "Thermodynamic Solubility", "setting": "[1]; pH 1.0", "value": 0.3, "unit": "mg/mL"}, {"measurement": "HPLC Conc", "setting": "[1]; pH 1.0, 24 h slurry", "value": 0.3, "unit": "mg/mL"}, {"measurement": "XRPD Result", "setting": "[1]; pH 1.0, solid after 24 h slurry, listed as L-Tartrate Pattern 1", "value": "Possible HCl salt"}, {"measurement": "XRPD Result", "setting": "[1]; pH 1.0, solid after 24 h slurry, listed as L-tartrate Pattern 1", "value": "possible HCl salt"}, {"measurement": "pH Post-24 h Slurry", "setting": "[1]; pH 1.0, listed as L-Tartrate Pattern 1", "value": 1.87}, {"measurement": "Thermodynamic Solubility", "setting": "[1]; pH 4.5", "value": 0.3, "unit": "mg/mL"}, {"measurement": "HPLC Conc", "setting": "[1]; pH 4.5, 24 h slurry, listed as L-Tartrate Pattern 1", "value": 0.3, "unit": "mg/mL"}, {"measurement": "XRPD Result", "setting": "[1]; pH 4.5, solid after 24 h slurry, listed as L-Tartrate Pattern 1", "value": "Pattern 2"}, {"measurement": "pH Post-24 h Slurry", "setting": "[1]; pH 4.5, listed as L-Tartrate Pattern 1", "value": 3.99}, {"measurement": "Thermodynamic Solubility", "setting": "[1]; pH 6.8", "value": 0.2, "unit": "mg/mL"}, {"measurement": "HPLC Conc", "setting": "[1]; pH 6.8, 24 h slurry", "value": 0.2, "unit": "mg/mL"}, {"measurement": "HPLC Conc", "setting": "[1]; pH 6.8, 24 h slurry, listed as L-Tartrate Pattern 1", "value": 0.2, "unit": "mg/mL"}, {"measurement": "XRPD Result", "setting": "[1]; pH 6.8, solid after 24 h slurry, listed as L-Tartrate Pattern 1", "value": "Pattern 2"}, {"measurement": "pH Post-24 h Slurry", "setting": "[1]; pH 6.8, listed as L-Tartrate Pattern 1", "value": 4.43}, {"measurement": "HPLC Conc", "setting": "[1]; water, 24 h slurry, listed as L-Tartrate Pattern 1", "value": 0.9, "unit": "mg/mL"}, {"measurement": "XRPD Result", "setting": "[1]; water, solid after 24 h slurry, listed as L-Tartrate Pattern 1", "value": "Pattern 2"}, {"measurement": "pH Post-24 h Slurry", "setting": "[1]; water, listed as L-Tartrate Pattern 1", "value": 3.43}, {"measurement": "Salt disproportionation", "setting": "[2]; deionized water, 24 h", "value": "no evidence of disproportionation"}, {"measurement": "Water pH Post-24 h", "setting": "[2]; deionized water, 24 h, ambient temperature, listed as L-Tartrate Pattern 1", "value": 3.43}, {"measurement": "XRPD Result", "setting": "[2]; listed as Formula I L-tartrate Pattern 1", "value": "L-tartrate Pattern 2"}, {"measurement": "XRPD Result", "setting": "[2]; listed as L-Tartrate Pattern 1", "value": "L-Tartrate Pattern 2"}, {"measurement": "XRPD Result", "setting": "[3]; Water Activity 0.281, water/acetone", "value": "Pattern 1"}, {"measurement": "XRPD Result", "setting": "[3]; Water Activity 0.637, water/acetone", "value": "Pattern 1"}, {"measurement": "XRPD Result", "setting": "[3]; Water activity 0.888, water/acetone, listed as L-Tartrate Pattern 1", "value": "Pattern 2 (hydrate)"}, {"measurement": "XRPD Result", "setting": "[3]; Water activity 0.888, water/acetone, listed as L-tartrate Pattern 1", "value": "L-tartrate Pattern 2"}, {"measurement": "XRPD", "setting": "[4]; 40° C./75% RH", "value": "Pattern 1"}, {"measurement": "HPLC Purity", "setting": "[4]; 40° C./75% RH", "value": 99.6, "unit": "% Area"}, {"measurement": "XRPD", "setting": "[4]; 80° C.", "value": "Pattern 1"}, {"measurement": "HPLC Purity", "setting": "[4]; 80° C.", "value": 99.3, "unit": "% Area"}, {"measurement": "XRPD", "setting": "[4]; Ambient temperature and light", "value": "Pattern 1"}, {"measurement": "HPLC Purity", "setting": "[4]; Ambient temperature and light", "value": 99.5, "unit": "% Area"}, {"measurement": "Stability under accelerated conditions", "setting": "[4]; one week, ambient temperature and light, 40° C./75% RH and 80° C.", "value": "considered stable"}, {"measurement": "Apparent t1/2", "setting": "[5]; [6]", "value": "5.8 ± 0.2", "unit": "h"}, {"measurement": "BA", "setting": "[5]; [6]", "value": "71.3 ± 7.5", "unit": "%"}, {"measurement": "Plasma AUC0-inf", "setting": "[5]; [6]", "value": "14.6 ± 1.5* h*μM"}, {"measurement": "Tmax", "setting": "[5]; [6]", "value": "5.7 ± 1", "unit": "h"}, {"measurement": "Cmax", "setting": "[5]; PO 20 mg/kg (free base equivalent), mean ± SD, n = 3, listed as L-Tartrate salt, 20 mg/kg, read-out: Plasma Cmax", "value": "1.2 ± 0.3", "unit": "µM"}, {"measurement": "Cmax greater than the free base", "setting": "[5]; PO 20 mg/kg", "value": "approximately 30%"}, {"measurement": "Plasma AUC compared with the free base", "setting": "[5]; PO 20 mg/kg", "value": "significantly higher"}, {"measurement": "Adverse reactions or compound-related side effects", "setting": "[5]; PO 20 mg/kg, 48 h sampling period", "value": "No adverse reactions or compound-related side effects were observed"}, {"measurement": "% Dose in urine (unchanged Formula I)", "setting": "[5]; PO 20 mg/kg, pooled urine up to 48 h, listed as L-Tartrate salt, 20 mg/kg", "value": "0.341 ± 0.042", "unit": "%"}, {"measurement": "AUC greater than the free base", "setting": "[5]; PO 20 mg/kg, P<0.05", "value": "~50", "unit": "%"}, {"measurement": "N-demethylation metabolite of Formula I", "setting": "[5]; plasma and urine after PO 20 mg/kg, not quantified", "value": "detected in plasma and urine"}]}]}
